Measured values from ChEMBL document CHEMBL1201862, “PubChem BioAssay data set” (2004).
The source made the active and inactive calls.

Legend:
[1] = biological target: Intestinal-type alkaline phosphatase (Mus musculus, UniProt P24822); test: PubChem AID 488875; format: functional
[2] = biological target: T1, Intestinal-type alkaline phosphatase (Homo sapiens, UniProt P09923); test: activation of human intestinal alkaline phosphatase – biochemical, luminescent, uHTS hits, set 2, dose response (AID 488817); format: functional;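 further: potency of activators that raise enzyme activity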
[3] = biological target: T2, Alkaline phosphatase, tissue-nonspecific isozyme (Homo sapiens, UniProt P05186); test: activation of tissue-nonspecific alkaline phosphatase – biochemical, TNAP isozyme, human IAP uHTS hits, selectivity assay for human IAP activator project, dose response (AID 488886); format: functional;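 further: potency of compounds raising TNAP activity as a selectivity check on IAP activators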
T2 sequence (P05186 whole entry): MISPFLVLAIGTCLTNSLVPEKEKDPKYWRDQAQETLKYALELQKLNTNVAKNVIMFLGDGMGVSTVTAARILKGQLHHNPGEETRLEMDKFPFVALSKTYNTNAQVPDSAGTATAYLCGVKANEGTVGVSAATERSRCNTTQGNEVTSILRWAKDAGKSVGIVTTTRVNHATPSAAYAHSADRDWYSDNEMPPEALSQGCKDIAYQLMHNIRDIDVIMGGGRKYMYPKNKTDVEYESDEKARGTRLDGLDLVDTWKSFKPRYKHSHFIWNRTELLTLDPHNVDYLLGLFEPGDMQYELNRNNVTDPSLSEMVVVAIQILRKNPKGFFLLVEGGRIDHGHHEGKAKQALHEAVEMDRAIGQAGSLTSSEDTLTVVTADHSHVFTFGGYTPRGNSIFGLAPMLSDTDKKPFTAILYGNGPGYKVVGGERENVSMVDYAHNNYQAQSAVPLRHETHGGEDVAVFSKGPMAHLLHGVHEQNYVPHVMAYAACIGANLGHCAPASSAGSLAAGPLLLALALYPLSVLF

[4] = biological target: T1, Intestinal-type alkaline phosphatase; test: human intestinal alkaline phosphatase activators, dose response, biochemical, luminescence, uHTS hits (AID 463120); format: functional
[5] = THP-1 cell cytotoxicity, dose response, cytotoxicity control for non-replicating M. tuberculosis project (AID 489025); format: functional
[6] = NIH3T3 cell viability loss – ATP luminescence, mouse fibroblasts, counter-screen, dose response (AID 2010); format: functional, cell-based;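 further: cells exposed to compound for about 90 hours before reading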
cells [7] = test: cells
[8] = biological target: Nuclear receptor subfamily 5 group A member 2 (Homo sapiens, UniProt O00482); format: functional, cell-based;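 further: HEK293T cells transfected with LRH-1 and a StAR promoter luciferase reporter; potency for inhibitors that lower LRH-1 driven reporter light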
cells [9] = format: functional
Steroidogenic factor 1 = Steroidogenic factor 1 (Homo sapiens, UniProt Q13285); test: Counterscreen for inverse agonists of the liver receptor homolog-1 (LRH-1; NR5A2): Luminescence-based cell-based high throughput dose response assay to identify inverse agonists of the Steroidogenic Factor 1 Nuclear Receptor (SF1; NR5A1).; format: functional
[10] = Vero E6 cell cytotoxicity, dose response, cytotoxicity control for non-replicating M. tuberculosis project, secondary assay (AID 492998); format: functional, VeroE6; conditions: Vero C1008
[11] = nonselective StAR promoter luciferase inhibitors – cell-based, luminescence, luciferase reporter, counter-screen for LRH-1 inverse agonist project, dose response (AID 651969); format: functional
[12] = microbe, parasite or virus in culture; format: functional; conditions: Mycobacterium tuberculosis
[13] = Trypanosoma cruzi growth suppression in host cells – NIH3T3 host cells, beta-gal luminescence, confirmation (AID 2044); format: functional, cell-based;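 further: intracellular parasites grown in NIH/3T3 mouse fibroblasts as host cells; luminescent beta-galactosidase reporter signal from transgenic T. cruzi replicating inside host cells; inhibitors lower the luminescence signal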
[14] = biological target: T3, Tyrosine-protein phosphatase non-receptor type 7 (Homo sapiens, UniProt P35236); format: functional
T3 sequence (P35236 whole entry): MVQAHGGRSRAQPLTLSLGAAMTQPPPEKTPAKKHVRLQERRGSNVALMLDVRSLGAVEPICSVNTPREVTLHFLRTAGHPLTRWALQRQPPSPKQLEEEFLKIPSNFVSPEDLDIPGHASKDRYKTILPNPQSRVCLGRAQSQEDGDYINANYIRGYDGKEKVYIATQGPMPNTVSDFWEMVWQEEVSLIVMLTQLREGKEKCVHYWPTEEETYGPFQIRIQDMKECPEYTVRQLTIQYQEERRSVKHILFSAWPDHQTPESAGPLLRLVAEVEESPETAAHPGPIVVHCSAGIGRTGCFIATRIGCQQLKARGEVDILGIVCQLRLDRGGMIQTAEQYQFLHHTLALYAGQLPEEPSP

[15] = biological target: T4, Tyrosine-protein phosphatase non-receptor type 22 (Homo sapiens, UniProt Q9Y2R2); format: functional
T4 sequence (Q9Y2R2 whole entry): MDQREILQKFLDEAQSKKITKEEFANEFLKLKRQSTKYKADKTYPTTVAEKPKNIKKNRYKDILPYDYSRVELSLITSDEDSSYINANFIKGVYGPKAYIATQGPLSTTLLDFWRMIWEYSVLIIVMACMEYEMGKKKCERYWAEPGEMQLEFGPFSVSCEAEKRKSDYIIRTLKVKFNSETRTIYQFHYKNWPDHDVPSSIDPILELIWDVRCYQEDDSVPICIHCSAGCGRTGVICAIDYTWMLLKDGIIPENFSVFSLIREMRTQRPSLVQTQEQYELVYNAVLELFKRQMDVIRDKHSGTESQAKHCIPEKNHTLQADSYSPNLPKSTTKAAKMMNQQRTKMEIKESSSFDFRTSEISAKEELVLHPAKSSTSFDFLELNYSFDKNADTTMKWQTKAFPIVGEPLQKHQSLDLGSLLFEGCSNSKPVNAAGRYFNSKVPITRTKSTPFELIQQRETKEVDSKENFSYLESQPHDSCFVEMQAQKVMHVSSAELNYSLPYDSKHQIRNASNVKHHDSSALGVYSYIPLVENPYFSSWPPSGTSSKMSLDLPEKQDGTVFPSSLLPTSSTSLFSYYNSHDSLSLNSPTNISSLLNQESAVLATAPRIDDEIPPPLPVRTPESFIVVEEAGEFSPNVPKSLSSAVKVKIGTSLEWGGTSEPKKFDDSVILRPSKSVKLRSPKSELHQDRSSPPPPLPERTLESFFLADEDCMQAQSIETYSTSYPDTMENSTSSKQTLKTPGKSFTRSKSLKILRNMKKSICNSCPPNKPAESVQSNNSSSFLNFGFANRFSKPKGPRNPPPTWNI

[16] = biological target: T4, Tyrosine-protein phosphatase non-receptor type 22; format: functional; remark: listed apart in the source
Vero [17] = test: antiviral protection of cells from WNV – synthesized analogs, SAR follow-up (AID 2238); format: functional, cell-based; conditions: Chlorocebus sabaeus
Vero [18] = test: Vero cell viability after compound exposure – synthesized analogs, set II, cytotoxicity control for West Nile virus antiviral project, SAR follow-up (AID 2402); format: functional; conditions: Chlorocebus sabaeus
Vero [19] = test: inhibition of WNV-induced cytopathic effect – cell-based, CPE readout (AID 1621); format: functional; conditions: Chlorocebus sabaeus

T1 sequence (P09923 whole entry): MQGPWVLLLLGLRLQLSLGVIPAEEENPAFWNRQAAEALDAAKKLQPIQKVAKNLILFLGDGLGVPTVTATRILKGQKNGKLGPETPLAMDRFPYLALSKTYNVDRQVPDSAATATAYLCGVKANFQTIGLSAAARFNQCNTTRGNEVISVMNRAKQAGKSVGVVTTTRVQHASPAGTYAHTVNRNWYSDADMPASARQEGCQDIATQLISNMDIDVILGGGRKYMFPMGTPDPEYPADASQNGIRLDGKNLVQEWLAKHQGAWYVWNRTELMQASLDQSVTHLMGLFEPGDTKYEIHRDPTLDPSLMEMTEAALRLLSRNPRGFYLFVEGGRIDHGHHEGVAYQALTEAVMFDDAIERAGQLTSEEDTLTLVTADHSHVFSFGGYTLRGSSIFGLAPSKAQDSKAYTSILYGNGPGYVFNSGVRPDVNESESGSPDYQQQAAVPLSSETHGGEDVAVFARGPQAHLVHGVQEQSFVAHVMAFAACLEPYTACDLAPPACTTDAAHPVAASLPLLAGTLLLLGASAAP
Steroidogenic factor 1, sequence (Q13285 whole entry): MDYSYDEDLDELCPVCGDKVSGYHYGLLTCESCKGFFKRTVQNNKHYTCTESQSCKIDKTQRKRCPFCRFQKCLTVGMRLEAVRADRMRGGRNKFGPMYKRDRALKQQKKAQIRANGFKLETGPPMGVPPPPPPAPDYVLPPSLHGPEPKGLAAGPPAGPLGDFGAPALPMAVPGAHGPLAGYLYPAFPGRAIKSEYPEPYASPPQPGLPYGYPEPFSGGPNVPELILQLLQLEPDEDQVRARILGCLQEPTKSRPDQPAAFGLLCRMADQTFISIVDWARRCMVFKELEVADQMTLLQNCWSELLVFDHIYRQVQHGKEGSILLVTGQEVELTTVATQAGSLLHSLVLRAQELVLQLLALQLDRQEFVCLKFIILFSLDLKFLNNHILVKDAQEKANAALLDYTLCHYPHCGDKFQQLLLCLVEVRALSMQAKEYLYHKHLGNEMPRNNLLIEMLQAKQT
Nuclear receptor subfamily 5 group A member 2, sequence (O00482 whole entry): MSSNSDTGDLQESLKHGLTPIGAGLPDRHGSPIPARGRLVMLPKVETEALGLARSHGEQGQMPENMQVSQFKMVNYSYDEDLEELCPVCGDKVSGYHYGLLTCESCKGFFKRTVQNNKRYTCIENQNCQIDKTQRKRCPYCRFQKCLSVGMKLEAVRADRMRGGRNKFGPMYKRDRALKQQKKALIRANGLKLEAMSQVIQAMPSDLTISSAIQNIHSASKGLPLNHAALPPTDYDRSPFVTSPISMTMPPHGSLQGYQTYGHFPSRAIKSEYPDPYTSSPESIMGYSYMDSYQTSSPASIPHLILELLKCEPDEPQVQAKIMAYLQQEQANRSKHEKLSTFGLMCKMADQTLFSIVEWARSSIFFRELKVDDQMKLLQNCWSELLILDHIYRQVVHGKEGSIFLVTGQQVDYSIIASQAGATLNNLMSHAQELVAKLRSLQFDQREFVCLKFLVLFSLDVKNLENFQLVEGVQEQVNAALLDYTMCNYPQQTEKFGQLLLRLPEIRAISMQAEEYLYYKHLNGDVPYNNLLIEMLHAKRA
Intestinal-type alkaline phosphatase (Mus musculus, UniProt P24822), sequence (P24822 whole entry): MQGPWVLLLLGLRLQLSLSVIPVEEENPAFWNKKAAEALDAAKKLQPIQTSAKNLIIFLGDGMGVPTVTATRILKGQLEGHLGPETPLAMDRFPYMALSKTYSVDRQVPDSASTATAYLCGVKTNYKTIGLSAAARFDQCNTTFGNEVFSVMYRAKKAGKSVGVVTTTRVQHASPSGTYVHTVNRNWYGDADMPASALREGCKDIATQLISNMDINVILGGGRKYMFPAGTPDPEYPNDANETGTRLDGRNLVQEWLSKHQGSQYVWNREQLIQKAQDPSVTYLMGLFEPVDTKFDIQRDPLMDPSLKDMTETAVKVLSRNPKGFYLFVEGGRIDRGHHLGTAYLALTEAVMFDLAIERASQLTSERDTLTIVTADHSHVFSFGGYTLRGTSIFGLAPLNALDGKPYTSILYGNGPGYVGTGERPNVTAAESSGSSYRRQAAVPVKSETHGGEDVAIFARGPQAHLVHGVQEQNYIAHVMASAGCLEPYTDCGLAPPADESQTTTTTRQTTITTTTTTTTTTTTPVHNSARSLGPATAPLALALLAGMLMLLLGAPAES

With `CN(CC(=O)Nc1ccccc1F)CC(=O)Nc1ccc(F)c(F)c1F` the EC50 [1] was > 100 µM (inactive), the EC50 [2] was 23.6 µM (active) and the EC50 [3] was 23.3 µM (active). The EC50 [4] was 15.8 µM (active).
With `Cc1onc(-c2c(F)cccc2Cl)c1C(=O)ON=C(N)c1ccc([N+](=O)[O-])o1` the CC50 [5] was 17.8 µM (active), the EC50 [6] was 12.7 µM (active) and the EC50 (cells [7]) was 0.015 µM (active). The IC50 [8] was 0.143 µM (active), the IC50 (cells [9]) was 4.6 µM (active) and the IC50 (Steroidogenic factor 1) was 0.143 µM (active). For the same molecule, the CC50 [10] was > 20 µM (active), the IC50 [11] was 35.9 µM (inactive) and the CC50 [12] was 21.2 µM (active). For the same molecule, the EC50 [13] was < 0.1 µM (active).
In the case of `N#CC(C(=O)NC1CCCCC1)=C1CCCCC1`, the IC50 [14] is reported as > 79.4 µM (inactive), the IC50 [15] is reported as > 79.4 µM (inactive) and the IC50 [16] is reported as > 79.4 µM (inactive).
In the case of `O=C(CSc1nc2ccccc2c(=O)n1-c1ccc(F)cc1F)Nc1ccc(N2CCOCC2)cc1`, the IC50 (Vero [17]) is reported as 38.1 µM (active), the CC50 (Vero [18]) is reported as > 200 µM (active) and the IC50 (Vero [19]) is reported as 26.7 µM (active).
